Holding throughout (assay type): cell-based
One assay deals with THP1-Dual KO-TREX1 cells. The experiment in a line: THP1 TREX1 KO inhibition assay (type 1 interferon response). Particulars: Homo sapiens, 144 h, type 1 interferon (QUANTI-LUC), 1 μM 5-aza-2′-deoxycytidine, six days. The procedure:
Exemplary compounds were tested for their ability to alter the type 1 interferon response in THP1 Dual TREX1 KG cells treated with 5-aza-2′-deoxycytidine. Assay procedures and results are described below.
THP1 Dual TREX1 KG cells were purchased from Invivogen. The THP1-Dual™ KO-TREX1 cells were cultured in RPMI 1640, 10% heat-inactivated fetal bovine serum, 25 mM HEPES, 10 μg/mL blasticidin, and 100 μg/mL zeocin. THP1-Dual™ KO-TREX1 cells were treated with a dose titration of a test compound alone or in the presence of 1 μM 5-aza-2′-deoxycytidine (Sigma-Aldrich, cat #189825). Type 1 Interferon and cell viability were assessed after six days of treatment.
Stock solution of the test compound was prepared in DMSO followed by a three-fold dilution in DMSO. Additional 50× dilution was prepared in cell culture media for each dilution. 10 μL of diluted test compound was then added to a 96-well plate.
THP1-Dual™ KO-TREX1 cells were treated with either 1×PBS or 1 μM 5-aza-2′-deoxycytidine. […] of the THP1-Dual™ KO-TREX1 cells from either treatment were added to each well of the 96-well plate containing the test compound titration at 50,000 cells/well. Cells were incubated at 37° C., 5% CO2 in a humidified incubator for six days. Cells treated with 1 μM 5-aza-2′-deoxycytidine were added at the same density as above and incubated at 37° C., 5% CO2 in a humidified incubator for six days. On day six, 25 μL of cell supernatant was transferred to a 96-well white-walled plate, followed by addition to each well of 50 μL of QUANTI-LUC solution containing stabilizer. Luminescence was detected on a plate reader according to the manufacturer's instructions.
The remaining cells were assessed for cell viability by adding 25 μL of CellTiter-Glo (Promega, G9683) solution to each well, and being placed on a shaker for 10 minutes at room temperature. Luminescence was detected on a plate reader, according to the manufacturer's instructions.
In the tables “A” represents values≤0.050 μM; “B” represents values from >0.050 μM to ≤0.100 μM; “C” represents values from >0.100 μM to ≤0.250 μM; “D” represents values from >0.250 μM to ≤1 μM; “E” represents values>1 μM; and “NT”=not tested: […]

The nature of assay [1]: Mitochondria toxicity assay with PC3 cells, in-cell ELISA COX-1. Particulars: 5 days treatment. The method in brief: (§1)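 This in-cell ELISA was run on fixed, permeabilized PC3 cells after 5-day exposure to titrated compound, with cytotoxicity measured on a duplicate plate. Results are reported as categories A (<1.0 μM) to E (>100.0 μM).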
(In general: ELISA stands for enzyme-linked immunosorbent assay.)

Assay [2] relates to SDH-A (succinate dehydrogenase-A). The experiment in a line: Mitochondria toxicity assay with PC3 cells, in-cell ELISA SDH-A. Particulars: 5 days treatment. The method in brief: as §1
The subject of a further assay is PC3 cells. Briefly: Mitochondria toxicity assay with PC3 cells, cytotoxicity (Cell Titer Glo). Conditions: Homo sapiens, PC-3, 120 h, 5 days treatment. The method in brief: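 Cytotoxicity reported in μM bins, A <1.0 through E >100.0. Measured via Cell Titer Glo luminescence (30 min, room temperature) after 5-day dose-titration treatment of PC3 cells, grown in F-12K/10% FBS, at 37° C, 5% CO2.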

The IC50 is the concentration at which inhibition is half-maximal. A lower IC50 goes with greater potency in that assay. On to `CCCC1(CO)O[C@@H](n2ccc(N)nc2=O)C[C@@H]1O` (stereo partly drawn) [Compound 57, 4-amino-1-((2R,4S,5R)-4-hydroxy-5-(hydroxymethyl)-5-propyltetrahydrofuran-2-yl)pyrimidin-2(1H)-one], for which the IC50 in the assay with THP1-Dual KO-TREX1 cells is greater than 1 µM; in assay [1], greater than 100 µM; in assay [2], greater than 100 µM; in the assay on PC3 cells, greater than 100 µM.
For `CC(C)C(=O)OC[C@@]1(CCl)O[C@@H](n2cc(F)c(N)nc2=O)C[C@@H]1OC(=O)C(C)C` [Compound 58], the IC50 with THP1-Dual KO-TREX1 cells is greater than 1 µM; in assay [1], 10 to 50 µM; in assay [2] it was greater than 100 µM; in the assay on PC3 cells it was greater than 100 µM.
As to `CCC[C@]1(CO)O[C@@H](n2ccc(N)nc2=O)C[C@@H]1O` [Compound 60, 4-amino-1-((2R,4S,5R)-4-hydroxy-5-(hydroxymethyl)-5-propyltetrahydrofuran-2-yl)pyrimidin-2(1H)-one], the IC50 in the assay on THP1-Dual KO-TREX1 cells was greater than 1 µM; in assay [1] it was greater than 100 µM; in assay [2], greater than 100 µM; in the assay on PC3 cells, greater than 100 µM.
Take `Nc1ccn([C@H]2C[C@H](O)[C@](CO)(CC(F)(F)F)O2)c(=O)n1` [Compound 62, 4-amino-1-[(2R,4S,5R)-4-hydroxy-5-(hydroxymethyl)-5-(2,2,2-trifluoroethyl)oxolan-2-yl] pyrimidin-2-one]: the half-maximal inhibitory concentration (IC50) in the assay with THP1-Dual KO-TREX1 cells was greater than 1 µM; in assay [1], 10 to 50 µM; in assay [2], 10 to 50 µM; in the assay on PC3 cells it was 10 to 50 µM.
`C=C[C@]1(CO)O[C@@H](n2cnc3c(=O)[nH]c(N)nc32)[C@@H](F)[C@@H]1O` [Compound 63, 2-amino-9-[(2R,3S,4R,5R)-5-ethenyl-3-fluoro-4-hydroxy-5-(hydroxymethyl)oxolan-2-yl]-1H-purin-6-one]: the half-maximal inhibitory concentration (IC50) was greater than 1 µM in the assay with THP1-Dual KO-TREX1 cells, 10 to 50 µM in assay [1], 10 to 50 µM in assay [2] and 10 to 50 µM with PC3 cells.
On to `CC[C@]1(CO)O[C@@H](n2cnc3c(N)nc(F)nc32)C[C@@H]1O` [Compound 64, (2R,3S,5R)-5-(6-amino-2-fluoro-9H-purin-9-yl)-2-ethyl-2-(hydroxymethyl)tetrahydrofuran-3-ol], for which the IC50 in the assay with THP1-Dual KO-TREX1 cells is greater than 1 µM; in assay [1], less than 1 µM; in assay [2] it was less than 1 µM; in the assay with PC3 cells, less than 1 µM.
Take `Nc1nc(=O)n([C@H]2C[C@H](O)[C@](CO)(C(F)F)O2)cc1F` [Compound 65, 4-amino-1-[(2R,4S,5R)-5-(difluoromethyl)-4-hydroxy-5-(hydroxymethyl)oxolan-2-yl]-5-fluoropyrimidin-2-one]: the half-inhibitory concentration (IC50) is 0.25 to 1 µM with THP1-Dual KO-TREX1 cells, greater than 100 µM in assay [1], greater than 100 µM in assay [2] and greater than 100 µM in the assay on PC3 cells.
On to `Nc1nc(=O)n([C@H]2C[C@H](O)[C@](CO)(C(F)(F)F)O2)cc1F` [Compound 66, 4-amino-5-fluoro-1-((2R,4S,5R)-4-hydroxy-5-(hydroxymethyl)-5-(trifluoromethyl)tetrahydrofuran-2-yl)pyrimidin-2(1H)-one], for which the half-inhibitory concentration (IC50) in the assay on THP1-Dual KO-TREX1 cells is greater than 1 µM; in assay [1] it was greater than 100 µM; in assay [2] it was greater than 100 µM; with PC3 cells, greater than 100 µM.
As for `CC[C@]1(CO)O[C@@H](n2cnc3c(=O)[nH]c(N)nc32)[C@@H](F)[C@@H]1O` [Compound 68, 2-amino-9-((2R,3S,4R,5R)-5-ethyl-3-fluoro-4-hydroxy-5-(hydroxymethyl)tetrahydrofuran-2-yl)-1,9-dihydro-6H-purin-6-one], the concentration for half-maximal inhibition (IC50) in the assay with THP1-Dual KO-TREX1 cells is greater than 1 µM; in assay [1], 10 to 50 µM; in assay [2], 10 to 50 µM; in the assay on PC3 cells, 10 to 50 µM.
Regarding `C=C[C@]1(CO)O[C@@H](n2cnc3c(=O)[nH]c(N)nc32)C[C@@H]1O` [Compound 69], the half-maximal inhibitory concentration (IC50) with THP1-Dual KO-TREX1 cells was greater than 1 µM; in assay [1], 1 to 10 µM; in assay [2] it was 1 to 10 µM; in the assay with PC3 cells it was 1 to 10 µM.
Take `Nc1nc2c(ncn2[C@@H]2O[C@@](CO)(CCl)[C@@H](O)[C@@H]2F)c(=O)[nH]1` [Compound 70, 2-amino-9-((2R,3S,4R,5R)-5-(chloromethyl)-3-fluoro-4-hydroxy-5-(hydroxymethyl)-tetrahydrofuran-2-yl)-1,9-dihydro-6H-purin-6-one]: the IC50 with THP1-Dual KO-TREX1 cells was greater than 1 µM; in assay [1], 10 to 50 µM; in assay [2], 10 to 50 µM; in the assay with PC3 cells, 10 to 50 µM.
As for `C=C[C@]1(CO)O[C@@H](n2cc(F)c(N)nc2=O)C[C@@H]1O` [Compound 74, 4-amino-5-fluoro-1-((2R,4S,5R)-4-hydroxy-5-(hydroxymethyl)-5-vinyltetrahydrofuran-2-yl)pyrimidin-2(1H)-one], the 50% inhibitory concentration (IC50) in the assay with THP1-Dual KO-TREX1 cells was greater than 1 µM; in assay [1], greater than 100 µM; in assay [2], greater than 100 µM; in the assay with PC3 cells, greater than 100 µM.
`C=C[C@]1(CO)O[C@@H](n2cc(F)c(N)nc2=O)[C@@H](O)[C@@H]1O` [Compound 75, 4-amino-1-((2R,3S,4S,5R)-3,4-dihydroxy-5-(hydroxymethyl)-5-vinyltetrahydrofuran-2-yl)-5-fluoropyrimidin-2(1H)-one]: the IC50 is greater than 1 µM in the assay on THP1-Dual KO-TREX1 cells, greater than 100 µM in assay [1], greater than 100 µM in assay [2] and greater than 100 µM in the assay with PC3 cells.
As to `C=C[C@]1(CO)O[C@@H](n2cc(F)c(N)nc2=O)[C@@H](F)[C@@H]1O` [Compound 76, 4-amino-1-[(2R,3S,4R,5R)-5-ethenyl-3-fluoro-4-hydroxy-5-(hydroxymethyl)oxolan-2-yl]-5-fluoropyrimidin-2-one], the concentration for half-maximal inhibition (IC50) was greater than 1 µM in the assay with THP1-Dual KO-TREX1 cells, 1 to 10 µM in assay [1], 1 to 10 µM in assay [2] and greater than 100 µM with PC3 cells.
Take `CC[C@]1(CO)O[C@@H](n2cc(F)c(N)nc2=O)[C@@H](O)[C@@H]1O` [Compound 78, 4-amino-1-((2R,3S,4S,5R)-5-ethyl-3,4-dihydroxy-5-(hydroxymethyl)tetrahydrofuran-2-yl)-5-fluoropyrimidin-2(1H)-one]: the IC50 is greater than 1 µM in the assay with THP1-Dual KO-TREX1 cells, greater than 100 µM in assay [1], greater than 100 µM in assay [2] and greater than 100 µM with PC3 cells.
Turning to `C=C[C@]1(CO)O[C@@H](n2cnc3c(N)nc(F)nc32)[C@@H](F)[C@@H]1O` [Compound 80, (2R,3R,4S,5R)-5-(6-amino-2-fluoropurin-9-yl)-2-ethenyl-4-fluoro-2-(hydroxymethyl)oxolan-3-ol], the IC50 with THP1-Dual KO-TREX1 cells is greater than 1 µM; in assay [1], 50 to 100 µM; in assay [2], greater than 100 µM; in the assay with PC3 cells it was greater than 100 µM.
In the case of `CC[C@]1(CO)O[C@@H](n2cnc3c(N)nc(F)nc32)[C@@H](F)[C@@H]1O` [Compound 81, (2R,3R,4S,5R)-5-(6-amino-2-fluoropurin-9-yl)-2-ethyl-4-fluoro-2-(hydroxymethyl)oxolan-3-ol], the half-inhibitory concentration (IC50) in the assay on THP1-Dual KO-TREX1 cells is greater than 1 µM; in assay [1] it was greater than 100 µM; in assay [2], greater than 100 µM; in the assay on PC3 cells, greater than 100 µM.
On to `CC[C@]1(CO)O[C@@H](n2cc(F)c(N)nc2=O)C[C@@H]1O` [Compound 82, 4-amino-1-((2R,4S,5R)-5-ethyl-4-hydroxy-5-(hydroxymethyl)-tetrahydrofuran-2-yl)-5-fluoropyrimidin-2(1H)-one], for which the IC50 with THP1-Dual KO-TREX1 cells was greater than 1 µM; in assay [1], greater than 100 µM; in assay [2] it was greater than 100 µM; in the assay with PC3 cells it was greater than 100 µM.
As to `[N-]=[N+]=N[C@]1(CO)O[C@@H](c2ccc3c(N)ncnn23)C[C@@H]1O` [Compound 92, (2R,3S,5R)-5-(4-aminopyrrolo[2,1-f][1,2,4]triazin-7-yl)-2-azido-2-(hydroxymethyl) tetrahydrofuran-3-ol], the IC50 is greater than 1 µM in the assay with THP1-Dual KO-TREX1 cells, less than 1 µM in assay [1], 1 to 10 µM in assay [2] and 1 to 10 µM in the assay on PC3 cells.
As to `C[C@]1(CO)O[C@@H](n2ccc(N)nc2=O)C[C@@H]1O` [Compound 106, 4-amino-1-((2R,4S,5R)-4-hydroxy-5-(hydroxymethyl)-5-methyltetrahydrofuran-2-yl)pyrimidin-2(1H)-one], the IC50 in the assay with THP1-Dual KO-TREX1 cells was 0.25 to 1 µM; in assay [1], less than 1 µM; in assay [2], less than 1 µM; in the assay on PC3 cells it was less than 1 µM.

The record behind these values is patent US12187758B2 (ROME Therapeutics, Inc., priority 2022, dated 2025).
